From patent publication US7816371B2, “Bicycloheteroaryl compounds as P2X7 modulators and uses thereof” (Renovis, Inc., priority 2006, dated 2010) come the findings set out here.

Structures are written as SMILES.

In the first assay the target is T1, P2X7 receptor (Homo sapiens, UniProt Q99572).
T1 construct: host or cells: THP-1 cells differentiated with LPS and IFN-γ
T1 sequence (Q99572 1-595): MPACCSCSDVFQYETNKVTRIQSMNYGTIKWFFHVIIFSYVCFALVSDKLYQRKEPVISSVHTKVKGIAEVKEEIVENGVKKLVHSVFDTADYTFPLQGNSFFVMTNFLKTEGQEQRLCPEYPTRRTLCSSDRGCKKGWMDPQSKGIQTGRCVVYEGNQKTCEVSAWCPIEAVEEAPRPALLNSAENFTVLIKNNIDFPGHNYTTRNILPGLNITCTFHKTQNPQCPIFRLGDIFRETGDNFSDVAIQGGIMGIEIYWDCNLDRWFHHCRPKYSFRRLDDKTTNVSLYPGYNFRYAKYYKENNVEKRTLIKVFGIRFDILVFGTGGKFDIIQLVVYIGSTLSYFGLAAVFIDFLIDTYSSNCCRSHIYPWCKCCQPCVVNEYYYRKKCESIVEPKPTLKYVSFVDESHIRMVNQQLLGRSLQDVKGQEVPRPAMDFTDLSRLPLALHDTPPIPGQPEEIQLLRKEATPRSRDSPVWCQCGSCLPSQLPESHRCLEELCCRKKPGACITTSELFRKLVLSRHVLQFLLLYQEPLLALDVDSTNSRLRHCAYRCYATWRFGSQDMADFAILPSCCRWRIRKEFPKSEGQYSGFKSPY
The experiment in a line: IL-1β release assay in differentiated THP-1 cells stimulated with BzATP (Example 9); % inhibition and IC50. It is filed as cell-based. The following applies: 0.3 μM compound; differentiated THP-1 cells, BzATP 250 uM; read-out: IL-1β % Inhib. @ 0.3 μM. How it is done: The cells are then pretreated for 30 minutes with the compound of interest at the appropriate concentration in RPMI media containing 100 IU/mL penicillin, 100 ug/mL streptomycin. […] 30 uL of cell supernatant is then collected and IL-1β levels determined via ELISA (R&D systems Cat. # HSLB50) according to manufacturer's recommendations using the Tecan Safire plate reader. Background adjusted IL-1β levels of drug treated and non-treated cells are used to calculate the percent inhibition.
The compounds set forth in Table 1 were tested for activity in a cellular model as described herein.
For the compound `C[C@H](C(N)=O)n1ccc2c(NC(=O)Cc3ccc(C(F)(F)F)cc3)c(Cl)ccc2c1=O` [Compound 316, (R)-2-{6-Chloro-1-oxo-5-[2-(4-trifluoromethyl-phenyl)-acetylamino]-1H-isoquinolin-2-yl}-propionamide], the inhibition at 0.3 µM lay within 51 to 75%.

Still in this assay, the particulars now being: THP-1 cells differentiated with LPS and IFN-γ, 30 min pretreatment, BzATP 250 uM, IL-1β by ELISA.
In the case of `C[C@@H](C(N)=O)n1ccc2c(NC(=O)Cc3ccc(Cl)c(Cl)c3)cccc2c1=O` [Compound 236, (S)-2-{5-[2-(3,4-Dichloro-phenyl)-acetylamino]-1-oxo-1H-isoquinolin-2-yl}-propionamide], the IC50 was determined as 46.6 nM.

Turning to `O=C(Cc1ccc(C(F)(F)F)cc1C(F)(F)F)Nc1cccc2c(=O)n(CCO)ccc12` [Compound 230], the IC50 worked out at 161 nM.

For the compound `CC(C(=O)Nc1cccc2c(=O)n([C@H](CO)C(N)=O)ccc12)c1ccc(Cl)cc1` (stereo partly drawn) [Compound 252, (R)-2-{5-[2-(4-Chloro-phenyl)-propionylamino]-1-oxo-1H-isoquinolin-2-yl}-3-hydroxy-propionamide], the IC50 is 161 nM.

Take `C[C@@H](CO)n1ccc2c(NC(=O)Cc3ccc(C(F)(F)F)c(F)c3)cccc2c1=O` [Compound 336]: the IC50 stood at 49.8 nM.

As to `CC(C)[C@H](C(N)=O)n1ccc2c(NC(=O)[C@@H](C)c3ccc(Cl)cc3)cccc2c1=O` [Compound 283], the IC50 stood at 9.7 nM.

With `C[C@H](C(N)=O)n1ccc2c(NC(=O)Cc3cccc(C(F)(F)F)c3)cccc2c1=O` [Compound 297], the IC50 is 16.6 nM.

Consider `C[C@H](C(N)=O)n1ccc2c(NC(=O)Cc3ccc(C(F)(F)F)cc3C(F)(F)F)cccc2c1=O` [Compound 380], for which the IC50 amounted to 64.3 nM.

With `C[C@H](CO)n1ccc2c(NC(=O)Cc3ccc(F)c(C(F)(F)F)c3)cccc2c1=O` [Compound 339], the IC50 was 10.5 nM.

As for `O=C(Cc1ccc(C(F)(F)F)cc1C(F)(F)F)Nc1cccc2c(=O)n(C(CO)CO)ccc12` [Compound 233], the IC50 was 391 nM.

Take `O=C(Cc1ccc(Cl)cc1C(F)(F)F)Nc1cccc2c(=O)n(C(CO)CO)ccc12` [Compound 228]: the IC50 was found to be 212 nM.

As for `CC(C)(CO)n1ccc2c(NC(=O)Cc3ccc(Cl)c(F)c3)cccc2c1=O` [Compound 373], the IC50 came to 258 nM.

For `C[C@H](C(N)=O)n1ccc2c(NC(=O)Cc3ccc(C(F)(F)F)c(F)c3)cccc2c1=O` [Compound 306], the IC50 came out at 5.07 nM.

Take `C[C@H](C(N)=O)n1ccc2c(NC(=O)Cc3ccccc3F)cccc2c1=O` [Compound 294]: the IC50 is 663 nM.

Turning to `C[C@H](C(=O)Nc1cccc2c(=O)n([C@H](C)C(=O)NC3CC3)ccc12)c1ccc(Cl)cc1` [Compound 308, (R)-2-{5-[(S)-2-(4-Chloro-phenyl)-propionylamino]-1-oxo-1H-isoquinolin-2-yl}-N-cyclopropyl-propionamide], the 50% inhibitory concentration (IC50) was determined as 302 nM.

`C[C@H](C(N)=O)n1ccc2c(NC(=O)Cc3ccc(C(F)(F)F)cc3)c(Cl)ccc2c1=O` [Compound 316, (R)-2-{6-Chloro-1-oxo-5-[2-(4-trifluoromethyl-phenyl)-acetylamino]-1H-isoquinolin-2-yl}-propionamide]: the IC50 turned out to be 2.29 nM.

In the case of `CC(C(=O)Nc1cccc2c(=O)n([C@H](C)C(N)=O)ccc12)c1ccc(Cl)cc1` (stereo partly drawn) [Compound 247], the IC50 is 18.8 nM.

Take `C[C@@H](C(N)=O)n1ccc2c(NC(=O)Cc3ccc(C(F)(F)F)c(F)c3)cccc2c1=O` [Compound 347]: the IC50 was 31.2 nM.

For `C[C@H](C(N)=O)n1ccc2c(NC(=O)c3cccc4ncccc34)cccc2c1=O` [Compound 272], the IC50 was above 1000 nM.

Take `C[C@H](C(N)=O)n1ccc2c(NC(=O)Cc3ccc(F)c(F)c3F)cccc2c1=O` [Compound 379]: the IC50 was 30.4 nM.

For `C[C@H](C(=O)Nc1cccc2c(=O)n([C@@H](C)CO)ccc12)c1ccc(Cl)c(Cl)c1` [Compound 326], the IC50 was 122 nM.

Take `O=C(Cc1ccccc1)Nc1cccc2c(=O)n(CCO)ccc12` [Compound 76]: the IC50 was above 1000 nM.

For `CC(C)[C@H](C(=O)NC1CC1)n1ccc2c(NC(=O)[C@H](C)c3ccc(Cl)cc3)cccc2c1=O` [Compound 282], the IC50 is 33.8 nM.

For `CNCCn1ccc2c(NC(=O)Cc3ccc(Cl)c(Cl)c3)cccc2c1=O` [Compound 234], the IC50 was 144 nM.

As for `C[C@H](CO)n1ccc2c(NC(=O)Cc3ccc(F)c(C(F)(F)F)c3)c(Cl)ccc2c1=O` [Compound 377, N-[6-Chloro-2-((R)-2-hydroxy-1-methyl-ethyl)-1-oxo-1,2-dihydro-isoquinolin-5-yl]-2-(4-fluoro-3-trifluoromethyl-phenyl)-acetamide], the IC50 turned out to be 0.38 nM.

For the compound `C[C@H](C(N)=O)n1ccc2c(NC(=O)Cc3cccc(C#N)c3)cccc2c1=O` [Compound 288], the IC50 was above 1000 nM.

`C[C@H](C(N)=O)n1ccc2c(NC(=O)[C@H](C)c3ccc(Cl)cc3)cccc2c1=O` [Compound 262]: the IC50 was found to be 73.1 nM.

`CC(C)(CO)n1ccc2c(NC(=O)Cc3ccc(F)c(C(F)(F)F)c3)cccc2c1=O` [Compound 367]: the IC50 came out at 106 nM.

As for `C[C@@H](C(=O)Nc1cccc2c(=O)n([C@@H](C)CO)ccc12)c1ccc(Cl)c(Cl)c1` [Compound 317], the IC50 is 93.7 nM.

For the compound `CC(C(=O)Nc1cccc2c(=O)n(C(CO)CO)ccc12)c1ccc(Cl)cc1` (stereo not drawn) [Compound 231], the IC50 turned out to be 374 nM.

For `CC(C)(CO)n1ccc2c(NC(=O)Cc3ccc(C(F)(F)F)cc3)cccc2c1=O` [Compound 363], the IC50 was found to be 167 nM.

Turning to `CC(C(=O)Nc1cccc2c(=O)n([C@@H](C)C(N)=O)ccc12)c1ccc(Cl)cc1` (stereo partly drawn) [Compound 240], the IC50 stood at 11.8 nM.

`C[C@H](CO)n1ccc2c(NC(=O)Cc3ccc(C(F)(F)F)c(F)c3)c(Cl)ccc2c1=O` [Compound 375, N-[6-Chloro-2-((R)-2-hydroxy-1-methyl-ethyl)-1-oxo-1,2-dihydro-isoquinolin-5-yl]-2-(3-fluoro-4-trifluoromethyl-phenyl)-acetamide]: the IC50 came to 4.65 nM.

Regarding `C[C@@H](C(=O)Nc1cccc2c(=O)n([C@@H](C)C(N)=O)ccc12)c1ccc(Cl)cc1` [Compound 266], the IC50 came to 38.7 nM.

In the case of `C[C@H](C(=O)Nc1cccc2c(=O)n([C@@H](C(N)=O)c3ccccc3)ccc12)c1ccc(Cl)c(Cl)c1` [Compound 278, (S)—N-[2-((R)-Carbamoyl-phenyl-methyl)-1-oxo-1,2-dihydro-isoquinolin-5-yl]-2-(3,4-dichloro-phenyl)-propionamide], the IC50 came to 58 nM.

In the case of `NCC(CCl)Cn1ccc2c(NC(=O)Cc3ccc(Cl)c(C(F)(F)F)c3)cccc2c1=O` (stereo not drawn) [Compound 258, N-[2-(3-Amino-2-chloromethyl-propyl)-1-oxo-1,2-dihydro-isoquinolin-5-yl]-2-(4-chloro-3-trifluoromethyl-phenyl)-acetamide], the IC50 is 9.92 nM.

On to `NCC(CCl)Cn1ccc2c(NC(=O)Cc3ccc(Cl)c(Cl)c3)cccc2c1=O` (stereo not drawn) [Compound 259], for which the IC50 amounted to 208 nM.

As to `C[C@@H](C(N)=O)n1ccc2c(NC(=O)Cc3ccc(F)c(C(F)(F)F)c3)cccc2c1=O` [Compound 348], the IC50 was 20.8 nM.

On to `C[C@H](C(=O)Nc1cccc2c(=O)n([C@@H](C(N)=O)c3ccccc3)ccc12)c1ccc(Cl)cc1` [Compound 279, (S)—N-[2-((R)-Carbamoyl-phenyl-methyl)-1-oxo-1,2-dihydro-isoquinolin-5-yl]-2-(4-chloro-phenyl)-propionamide], for which the IC50 is 106 nM.

Take `C[C@H](CO)n1ccc2c(NC(=O)Cc3ccc(C(F)(F)F)cc3F)cccc2c1=O` [Compound 359]: the IC50 came out at 43.1 nM.

Regarding `CC(C(=O)Nc1cccc2c(=O)n(C[C@@H]3CCCN3)ccc12)c1ccc(Cl)cc1` (stereo partly drawn) [Compound 246], the IC50 is 113 nM.

As for `C[C@@H](C(N)=O)n1ccc2c(NC(=O)Cc3ccc(C(F)(F)F)cc3)cccc2c1=O` [Compound 351], the IC50 is 35.8 nM.

With `O=C(Cc1ccc(Cl)cc1Cl)Nc1cccc2c(=O)n(CCO)ccc12` [Compound 69], the IC50 was 10.8 nM.

`COc1cccc(CC(=O)Nc2cccc3c(=O)n(CCO)ccc23)c1` [Compound 75]: the IC50 was above 1000 nM.

In the case of `C[C@H](C(N)=O)n1ccc2c(NC(=O)Cc3ccc(C(F)(F)F)cc3F)cccc2c1=O` [Compound 296], the IC50 is 17.9 nM.

As to `CC(C(=O)Nc1cccc2c(=O)n([C@@H](C)C(N)=O)ccc12)c1cccc(C(F)(F)F)c1F` (stereo partly drawn) [Compound 355], the IC50 was 36.9 nM.

Take `C[C@H](C(=O)Nc1cccc2c(=O)n([C@@H](C)C(N)=O)ccc12)c1ccc(Cl)cc1` [Compound 265]: the IC50 is 15.2 nM.

Regarding `C[C@@H](CO)n1ccc2c(NC(=O)Cc3ccc(C(F)(F)F)cc3)cccc2c1=O` [Compound 318], the IC50 worked out at 132 nM.

Consider `O=C(Cc1ccc(F)cc1)Nc1cccc2c(=O)n(CCO)ccc12` [Compound 73], for which the IC50 is 532 nM.

On to `C[C@H](C(N)=O)n1ccc2c(NC(=O)Cc3ccc(C#N)cc3)cccc2c1=O` [Compound 287], for which the IC50 is 332 nM.

Turning to `O=C(Cc1ccc(Cl)c(Cl)c1)Nc1cccc2c(=O)n(C[C@H]3CCCN3)ccc12` [Compound 245], the IC50 is 46.5 nM.
